The structures appear in SMILES notation. pKi: −log10 of the molar value. Starred links: 1 amine or outer side, 2 acyl side, 3 side chain; linkers in the order of their positions; H or OH if unused. Non-standard residues stand in square brackets, D forms with d. Residues, ends and D or L forms follow the SMILES beside them. Groups on a side chain read outwards from the residue. N(2S-amino-4-Me-pentyl)Phe = CC(C)C[C@@H](CN([C@@H](Cc1ccccc1)C(=O)[*:2])[*:1])N[*:3]; Nle = CCCC[C@H](N)C(=O)O

A word on the pKi: it is −log10 of the Ki, conventionally taken in molar units. Low values mean a large Ki, high ones a small Ki.

Common to all, as to assay: Protease Inhibition Assay
What all share (settings): pH 5; 22 °C

Experiment [1] concerns the target T1, Dimer of Gag-Pol polyprotein [501-599,Q508K,L534I,L564I,C568A,C596A,G574S] (Human immunodeficiency virus 1, UniProt P03367, C568A/C596A/G574S/L534I/L564I/Q508K).
T1 construct: 501-599
The source says: (§1) The Ki values were obtained from the IC50 values estimated from an inhibitor dose-response curve with the spectroscopic assay and the chromogenic substrate.

Experiment [2] deals with T2, Dimer of Gag-Pol polyprotein [501-599,Q508K,L534I,L564I,C568A,C596A] (Human immunodeficiency virus 1, UniProt P03367, C568A/C596A/L534I/L564I/Q508K).
T2 construct: 501-599
Description: as §1

The target in experiment [3] is T3, Dimer of Gag-Pol polyprotein [501-599,Q508K,L534I,L564I,C568A,C596A,I551V] (Human immunodeficiency virus 1, UniProt P03367, C568A/C596A/I551V/L534I/L564I/Q508K).
T3 construct: 501-599
Description: as §1

In experiment [4] the target is T4, Dimer of Gag-Pol polyprotein [501-599,Q508K,L534I,L564I,C568A,C596A,L525I] (Human immunodeficiency virus 1, UniProt P03367, C568A/C596A/L525I/L534I/L564I/Q508K).
T4 construct: 501-599
Description: as §1

With `CCCC[C@H](NC(=O)[C@H](C)NC(=O)[C@H](CCC(=O)O)NC(=O)[C@H](Cc1ccccc1)NC[C@H](CC(C)C)NC(=O)[C@@H](NC(=O)[C@@H](N)CCCNC(=N)N)C(C)C)C(N)=O` [N-1270] (H-[N(2S-amino-4-Me-pentyl)Phe]([Val-Arg])EA[Nle]-NH2), the pKi was 6.48 in experiment [1], 7.12 in experiment [2], 6.64 in experiment [3] and 8.46 in experiment [4].

The record behind these values is BindingDB's records for doi:10.1016/j.jmb.2005.09.095 (Georgia State University, 2005).
